Activity calls are given as the source filed them. The rule behind the calls is not given here.
Experiments:
HeLa [1] = assay: Antiproliferative activity against human HeLa cells overexpressing betaIII-tubulin assessed as inhibition of cell growth by SRB assay; type: functional, cell-based
Tubulin (Bos taurus) = Tubulin (Bos taurus) (UniProt Q6B856+Q862L2+Q862F3); assay: Displacement of [3H]colchicine from bovine brain tubulin at 5 uM incubated for 10 mins; type: tissue-based
MDA-MB-435 [2] = assay: Antiproliferative activity against human MDA-MB-435 cells assessed as inhibition of cell growth by SRB assay; type: functional, cell-based
[3] = Selectivity ratio of EC50 for induction of microtubule depolymerization in rat A10 cells to IC50 for antiproliferative activity against human MDA-MB-435 cells
SK-OV-3 [4] = assay: Antiproliferative activity against wild type human SK-OV-3 cells assessed as inhibition of cell growth by SRB assay; type: functional, cell-based
SK-OV-3 [5] = assay: Antiproliferative activity against human SK-OV-3 cells overexpressing MDR-1-M6/6 assessed as inhibition of cell growth by SRB assay; type: functional, cell-based
[6] = Induction of microtubule depolymerization in rat A10 cells incubated for 18 hrs by indirect immunofluorescence analysis; type: cell-based
HeLa [7] = assay: Antiproliferative activity against wild type human HeLa cells assessed as inhibition of cell growth by SRB assay; type: functional, cell-based
MDA-MB-435 [8] = assay: Antitumor activity against human MDA-MB-435 cells xenografted in nude mouse assessed as reduction in tumor volume at 50 mg/kg, ip administered 3 times a week for 2 weeks and measured on day 14; type: functional, organism-based; conditions: time 14.0 day
MDA-MB-435 [9] = assay: Antitumor activity against human MDA-MB-435 cells xenografted in nude mouse at 50 mg/kg, ip administered 3 times a week for 2 weeks and measured on day 14; type: functional, organism-based; conditions: time 14.0 day
Tubulin = Tubulin (Bos taurus, UniProt Q6B856+Q862L2+Q862F3); assay: Inhibition of bovine brain tubulin assembly; type: tissue-based
MDA-MB-435 [10] = assay: Antitumor activity against human MDA-MB-435 cells xenografted in nude mouse at 15 mg/kg, ip administered 3 times a week for 2 weeks and measured on day 14; type: functional, organism-based; conditions: time 14.0 day
MDA-MB-435 [11] = assay: Antitumor activity against human MDA-MB-435 cells xenografted in nude mouse assessed as reduction in tumor volume at 15 mg/kg, ip administered 3 times a week for 2 weeks and measured on day 14; type: functional, organism-based; conditions: time 14.0 day

SMILES | IC50 (HeLa [1]) [nM] | inhibition (Tubulin (Bos taurus)) [%] | IC50 (MDA-MB-435 [2]) [nM] | Selectivity ratio [3] | IC50 (SK-OV-3 [4]) [nM] | IC50 (SK-OV-3 [5]) [nM] | EC50 [6] [nM] | IC50 (HeLa [7]) [nM] | Activity (MDA-MB-435 [8]) | Activity (MDA-MB-435 [9]) | IC50 (Tubulin) [nM] | Activity (MDA-MB-435 [10]) | Activity (MDA-MB-435 [11])
COc1ccc(N(C)c2nc(C)nc(N)c2Cl)cc1 | 112 | 76 | 71.3 | 21 | 133 | 180 | 1500 | 86.3 |  |  |  |  | 
COc1cccc(N(C)c2nc(C)nc(N)c2Cl)c1 |  |  |  |  |  |  | > 10000 |  |  |  |  |  | 
COc1ccc2c(c1)CCCN2c1nc(C)nc(N)c1Cl | 279 | 61 | 220 | 6.5 | 459 | 576 | 1400 | 312 |  |  |  |  | 
CCCCNc1nc(C)nc(N(C)c2ccc(OC)cc2)c1Cl | 105 | 84 | 84.4 | 5 | 122 | 165 | 432 | 66.2 |  |  |  |  | 
CNc1nc(C)nc(N(C)c2ccc(OC)cc2)c1Cl | 107 | 68 | 103 | 20 | 118 | 169 | 2100 | 87.6 |  |  |  |  | 
CCCNc1nc(C)nc(N(C)c2ccc(OC)cc2)c1Cl | 33.8 | 82 | 24.4 | 5 | 34.2 | 39.2 | 123 | 27.9 | Active | inactive |  |  | 
COc1ccc(N(C)c2nc(C)nc3[nH]ccc23)cc1 |  | 70 |  | 32 |  |  | 5800 |  |  |  | 2600 |  | 
COc1ccc(N(C)c2nc(C)nc(NC(C)C)c2Cl)cc1 | 1000 |  | 685 | 11 | 1400 | 1600 | 7400 | 800 |  |  |  |  | 
CC(=O)O[C@H]1C(=O)[C@@]2(C)[C@H]([C@H](OC(=O)c3ccccc3)[C@]3(O)C[C@H](OC(=O)[C@H](O)[C@@H](NC(=O)c4ccccc4)c4ccccc4)C(C)=C1C3(C)C)[C@]1(OC(C)=O)CO[C@@H]1C[C@@H]2O [PACLITAXEL] |  |  |  |  | 5 |  |  |  |  |  |  | inactive | Active
COc1ccc(N(C)c2nc(C)nc(N)c2C)cc1 | 250 | 45 | 206 | >39 | 312 | > 500 | > 8000 | 229 |  |  |  |  | 
COc1ccc(N(C)c2nc(C)nc(NC(C)=O)c2Cl)cc1 |  |  | 3700 |  |  |  | > 15000 |  |  |  |  |  | 
CCNc1nc(C)nc(N(C)c2ccc(OC)cc2)c1Cl | 61.7 | 74 | 50.4 | 6 | 77.9 | 93.5 | 305 | 41.8 |  |  |  |  | 
COc1ccc(/C=C\c2cc(OC)c(OC)c(OC)c2)cc1O [COMBRETASTATIN A4] |  |  |  |  |  |  | 9.8 |  |  |  |  |  | 
COc1ccc(Nc2nc(C)nc(N)c2Cl)cc1 |  |  |  |  |  |  | > 10000 |  |  |  |  |  | 
CCCNc1nc(C)nc(N(C)c2ccc3c(OC)cccc3c2)c1Cl | 234 | 61 | 221 | 1.2 | 227 | 362 | 260 | 368 |  |  |  |  | 
COc1ccc(N(C)c2nc(C)nc(NCc3ccccc3)c2Cl)cc1 |  | 14 |  |  |  |  | > 10000 |  |  |  |  |  | 
COc1cccc2cc(N(C)c3nc(C)nc(N)c3Cl)ccc12 | 70.2 | 74 | 56.1 | 15 | 64.7 | 193 | 831 | 67.1 |  |  |  |  | 
COc1ccc2c(c1)CCCN2c1nc(C)nc(NC(=O)C(C)(C)C)c1Cl | 2600 |  | 2100 |  | 3300 |  | > 10000 | 2600 |  |  |  |  | 
COc1ccc(N(C)c2nc(C)nc(NCC(C)C)c2Cl)cc1 | 104 | 57 | 78.1 | 5 | 107 | 117 | 394 | 96.7 |  |  |  |  | 
CSc1ccc(N(C)c2nc(C)nc(N)c2Cl)cc1 | 163 | 71 | 140 |  | 277 |  | 3300 | 158 |  |  |  |  | 
Cc1nc(N)c(Cl)c(N(C)c2ccc3c(c2)CCO3)n1 | 415 | 60 | 620 | 15 | 742 | 1050 | 9200 | 490 |  |  |  |  | 

Source: ChEMBL document CHEMBL5260860, “Simple monocyclic pyrimidine analogs as microtubule targeting agents binding to the colchicine site” (Bioorg Med Chem, 2023)
